According to the NIST ThermoML archive (doi:10.1021/acs.jced.7b00466):
Numbers after ± are expanded uncertainties.

Conditions: for viscosity / speed of sound / mass density: 102 kPa, Liquid; for viscosity: Concentric cylinders viscometry; for speed of sound: Frequency=3 MHz, Sing-around technique in a fixed-path interferometer; for mass density: Vibrating tube method; for surface tension liquid-gas: Pendant drop shape

SMILES | viscosity (293.15 K) | speed of sound (293.15 K) | mass density (293.15 K) | viscosity (303.15 K) | speed of sound (303.15 K) | mass density (303.15 K) | viscosity (313.15 K) | speed of sound (313.15 K) | mass density (313.15 K) | viscosity (323.15 K) | speed of sound (323.15 K) | mass density (323.15 K) | viscosity (333.15 K) | speed of sound (333.15 K) | mass density (333.15 K) | viscosity (343.15 K) | mass density (343.15 K) | further results
CCCCC1CCCCC1 [butylcyclohexane] | 1.31 ± 0.01 mPa·s | 1327.7 ± 1 m/s | 799.33 ± 0.2 kg/m3 | 1.11 ± 0.01 mPa·s | 1287.9 ± 1 m/s | 791.82 ± 0.2 kg/m3 | 0.961 ± 0.012 mPa·s | 1248.7 ± 1 m/s | 784.28 ± 0.2 kg/m3 | 0.837 ± 0.012 mPa·s | 1210.3 ± 1 m/s | 776.7 ± 0.2 kg/m3 | 0.736 ± 0.011 mPa·s | 1172.6 ± 1 m/s | 769.09 ± 0.2 kg/m3 | 0.653 ± 0.011 mPa·s | 761.4 ± 0.5 kg/m3 | surface tension liquid-gas (294.5 K): 26.6 ± 0.3 mN/m
CCCCCCCCCCCC [dodecane] | 1.47 ± 0.02 mPa·s | 1297.3 ± 1.3 m/s | 748.79 ± 1.5 kg/m3 | 1.23 ± 0.01 mPa·s | 1259.1 ± 1.3 m/s | 741.54 ± 1.5 kg/m3 | 1.05 ± 0.01 mPa·s | 1221.5 ± 1.3 m/s | 734.25 ± 1.5 kg/m3 | 0.902 ± 0.012 mPa·s | 1184.4 ± 1.3 m/s | 726.94 ± 1.5 kg/m3 | 0.786 ± 0.012 mPa·s | 1148 ± 1.3 m/s | 719.59 ± 1.5 kg/m3 | 0.69 ± 0.012 mPa·s | 712.2 ± 4.3 kg/m3 | surface tension liquid-gas (293.6 K): 25 ± 0.3 mN/m
Cc1ccccc1 [toluene] | – | – | – | – | – | – | – | – | – | – | – | – | – | – | – | – | – | surface tension liquid-gas (293 K): 28.6 ± 0.3 mN/m
CCCCCCc1ccccc1 [hexylbenzene] | 1.68 ± 0.01 mPa·s | 1374.7 ± 1.1 m/s | 857.69 ± 0.7 kg/m3 | 1.41 ± 0.01 mPa·s | 1337.3 ± 1.1 m/s | 850.09 ± 0.7 kg/m3 | 1.2 ± 0.01 mPa·s | 1300.5 ± 1.1 m/s | 842.49 ± 0.7 kg/m3 | 1.03 ± 0.01 mPa·s | 1264.3 ± 1.1 m/s | 834.87 ± 0.7 kg/m3 | 0.901 ± 0.012 mPa·s | 1228.8 ± 1.1 m/s | 827.48 ± 0.7 kg/m3 | 0.794 ± 0.012 mPa·s | 819.5 ± 2 kg/m3 | surface tension liquid-gas (294.1 K): 29.4 ± 0.4 mN/m
CCCCc1ccccc1 [butylbenzene] | 1.06 ± 0.01 mPa·s | 1352.8 ± 1 m/s | 860.6 ± 0.19 kg/m3 | 0.915 ± 0.012 mPa·s | 1314 ± 1 m/s | 852.56 ± 0.19 kg/m3 | 0.801 ± 0.012 mPa·s | 1275.8 ± 1 m/s | 844.5 ± 0.19 kg/m3 | 0.708 ± 0.011 mPa·s | 1238.2 ± 1 m/s | 836.41 ± 0.19 kg/m3 | 0.631 ± 0.011 mPa·s | 1201.4 ± 1 m/s | 828.29 ± 0.19 kg/m3 | 0.566 ± 0.011 mPa·s | 820.3 ± 0.5 kg/m3 | surface tension liquid-gas (294.4 K): 28.8 ± 0.3 mN/m
CCCCCCCCCCCCCCCC [hexadecane] | 3.43 ± 0.02 mPa·s | 1356.4 ± 1 m/s | 773.42 ± 0.32 kg/m3 | 2.72 ± 0.02 mPa·s | 1319 ± 1 m/s | 766.47 ± 0.32 kg/m3 | 2.2 ± 0.02 mPa·s | 1282.6 ± 1 m/s | 759.55 ± 0.32 kg/m3 | 1.82 ± 0.01 mPa·s | 1246.9 ± 1 m/s | 752.63 ± 0.32 kg/m3 | 1.54 ± 0.01 mPa·s | 1212 ± 1 m/s | 745.71 ± 0.32 kg/m3 | 1.31 ± 0.01 mPa·s | 738.8 ± 0.9 kg/m3 | surface tension liquid-gas (294 K): 27.2 ± 0.3 mN/m
